Results: ChEMBL document CHEMBL4834403, “Design and Synthesis of Novel Epigenetic Inhibitors Targeting Histone Deacetylases, DNA Methyltransferase 1, and Lysine Methyltransferase G9a with In Vivo Efficacy in Multiple Myeloma” (J Med Chem, 2021)
pIC50: −log10 of the molar value.

Molecular target: T1, Histone-lysine N-methyltransferase EHMT2 (Mus musculus, UniProt Q9Z148)
T1 sequence (Q9Z148 whole entry): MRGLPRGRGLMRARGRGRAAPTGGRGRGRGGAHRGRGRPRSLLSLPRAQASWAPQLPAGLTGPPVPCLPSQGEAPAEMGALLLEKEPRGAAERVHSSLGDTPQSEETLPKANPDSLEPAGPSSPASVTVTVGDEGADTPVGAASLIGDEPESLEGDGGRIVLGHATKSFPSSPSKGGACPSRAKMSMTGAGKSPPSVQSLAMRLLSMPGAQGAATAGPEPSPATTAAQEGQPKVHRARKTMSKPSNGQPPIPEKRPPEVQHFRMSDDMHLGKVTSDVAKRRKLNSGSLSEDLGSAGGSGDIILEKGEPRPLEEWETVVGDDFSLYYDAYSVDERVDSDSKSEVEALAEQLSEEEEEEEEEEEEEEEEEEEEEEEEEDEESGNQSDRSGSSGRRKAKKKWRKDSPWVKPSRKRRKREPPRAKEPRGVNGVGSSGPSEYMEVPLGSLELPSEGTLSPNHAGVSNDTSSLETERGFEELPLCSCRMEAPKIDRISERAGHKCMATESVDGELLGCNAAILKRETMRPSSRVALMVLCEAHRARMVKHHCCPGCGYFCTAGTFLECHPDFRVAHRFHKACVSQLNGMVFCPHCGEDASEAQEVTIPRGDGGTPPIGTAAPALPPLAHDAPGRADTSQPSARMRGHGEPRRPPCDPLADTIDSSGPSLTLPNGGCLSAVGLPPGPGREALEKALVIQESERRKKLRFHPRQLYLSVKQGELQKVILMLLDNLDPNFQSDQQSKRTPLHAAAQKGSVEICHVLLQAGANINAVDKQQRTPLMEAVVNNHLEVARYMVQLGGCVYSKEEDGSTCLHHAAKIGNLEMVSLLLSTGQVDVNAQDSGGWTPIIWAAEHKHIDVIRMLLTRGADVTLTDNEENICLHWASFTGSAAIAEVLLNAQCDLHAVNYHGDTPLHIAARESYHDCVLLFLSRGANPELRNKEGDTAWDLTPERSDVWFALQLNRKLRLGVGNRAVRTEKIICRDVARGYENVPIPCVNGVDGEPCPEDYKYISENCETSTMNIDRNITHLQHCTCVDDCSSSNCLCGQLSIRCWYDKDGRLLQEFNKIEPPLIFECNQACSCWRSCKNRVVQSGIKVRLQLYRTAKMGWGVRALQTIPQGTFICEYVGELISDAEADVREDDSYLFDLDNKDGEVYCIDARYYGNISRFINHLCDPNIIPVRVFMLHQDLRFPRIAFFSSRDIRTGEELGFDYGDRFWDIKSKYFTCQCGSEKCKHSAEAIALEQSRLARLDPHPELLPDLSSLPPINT
Assay: Inhibition of mouse thymus 6His-sumo-tagged G9a (969 to 1263 residues) expressed in Escherichia coli BL21 (DE3) using histone H3 as substrate incubated for 30 mins by MALDI-TOF-MS analysis

pIC50: 5.15
Structure (SMILES): COc1ccc2c(NC3CCN(Cc4ccccc4)CC3)nc(NCCNC(=O)CCCCCC(=O)NO)nc2c1
